Laboratory results published in patent publication US4704400A, “Medicarpin derivatives and analogs” (Merck & Co., Inc., priority 1986, dated 1987).

Key:
[1] = system: leukotriene C4 production in CXBG cells; experiment: Inhibition of CXBG leukotriene production (leukotriene C4 by enzyme immunoassay, A23187-stimulated cells); assay type: cell-based, mice; settings: A23187 stimulation 10 minutes at 37°, inhibitor preincubated 5 minutes
Protocol: (§1) Representative compounds of Formula I have been tested using the following assay to determine their mammalian leukotriene biosynthesis inhibiting activity and other relevant activities:
(§2) CXBG cells grown intraperitoneally in CB4 B6 /F1 /J mice were washed 5 times in Dulbeccos phosphate buffered saline without calcium or magnesium, suspended in medium 199 (Gibco) at 2×10^6 cells/ml, and incubated 15 minutes at 37°. Inhibitor solutions in methanol were incubated with the cells (10 μl/600 μl cells), for 5 minutes at 37°, and the cells were stimulated with 60 μl A23187 (50 μg/ml) for 10 minutes at 37°. Aliquots were removed for measurement of leukotriene C4 or thromboxane B2 by enzyme immunoassay as previously reported (D. K. Miller, et al., J. Immunological Methods, 81, 169-185, 1985). The percentage inhibition was calculated by the following: [formula]
(§3) IC50 s were determined graphically.

[2] = system: thromboxane B2 production in CXBG cells; experiment: Inhibition of CXBG prostoglandin production (thromboxane B2 by enzyme immunoassay, A23187-stimulated cells); assay type: cell-based, mice; settings: A23187 stimulation 10 minutes at 37°, inhibitor preincubated 5 minutes
Protocol: as §1, §2, §3

prostaglandin = settings: isolated from Dalbergia Odorifera T. Chen.; cited from earlier work

Compound | IC50, LTC4 [1] | IC50, TXB2 [2] | prostaglandin inhibition (prostaglandin)
(iso)medicarpin | 0.1 µg/mL | > 5 µg/mL | –
COc1ccc2c(c1)O[C@H]1c3ccc(O)cc3OC[C@@H]21 (relative stereo) [medicarpin] | – | – | negative results
